Measured values taken from ChEMBL document CHEMBL5137082, “Discovery of a Novel Vascular Disrupting Agent Inhibiting Tubulin Polymerization and HDACs with Potent Antitumor Effects” (J Med Chem, 2022).
Calls of active or inactive are those of the source. The rule behind the calls is not given here.

Tests used:
[1] = Metabolic stability in mouse plasma assessed as compound remaining at 40 uM measured after 0.5 hrs by LC-MS/MS analysis (reference value: 100%); assay type: ADME, cell-free
Histone deacetylase 2 [2] = biological target: T1, Histone deacetylase 2 (Homo sapiens, UniProt Q92769); experiment: Inhibition of HDAC2 in human HeLa cells using BOC-K(Ac)-AMC as substrate measured after 30 mins by fluorescence based microtiter plate reader assay; assay type: cell-based
HepG2 [3] = experiment: Induction of cell cycle arrest in human HepG2 cells assessed as accumulation S phase at 30 nM incubated for 48 hrs by propidium iodide staining based flow cytometry analysis (reference value: 17.14 +/- 0.34%); assay type: functional
[4] = Toxicity in ICR mouse allografted with mouse H22 cells assessed as pathological changes in lung at 20 mg/kg, iv administered qd measured after 21 days by H and E staining based analysis; assay type: organism-based; conditions: in vivo, 504 h, time 21 day
HepG2 [5] = experiment: Induction of apoptosis in human HepG2 cells assessed as early apoptotic cells at 30 nM incubated for 48 hrs by Annexin-V/PI-staining based flow cytometry (reference value: 4.61 +/- 0.46%); assay type: functional
HepG2 [6] = experiment: Induction of apoptosis in human HepG2 cells assessed as downregulation of Bcl-2 protein expression measured after 24 hrs by Western blot analysis; assay type: functional, cell-based; conditions: dose 7.5-30 nM, DDE = dose-dependent effect
Mus musculus = experiment: In vivo inhibition of HDAC in ICR mouse allografted with mouse H22 cells assessed as upregulation of acetyl-alpha tubulin expression at 20 mg/kg, iv qd administered for 21 days measured after 24 hrs by Western blot analysis; assay type: functional, organism-based; conditions: time 21.0 day
[7] = Cardiotoxicity in ICR mouse allografted with mouse H22 cells assessed as effect on QRS complex at 20 mg/kg, iv administered qd measured after 21 days by ECG analysis; assay type: toxicity, organism-based; conditions: in vivo, 504 h, time 21 day
HepG2 [8] = experiment: Induction of cell cycle arrest in human HepG2 cells assessed as accumulation G1 phase at 30 nM incubated for 48 hrs by propidium iodide staining based flow cytometry analysis (reference value: 59.32 +/- 0.77%); assay type: functional
HepG2 [9] = experiment: Induction of cell cycle arrest in human HepG2 cells assessed as accumulation G1 phase at 7.5 nM incubated for 48 hrs by propidium iodide staining based flow cytometry analysis (reference value: 59.32 +/- 0.77%); assay type: functional
Histone deacetylase 1 = Histone deacetylase 1 (Homo sapiens, UniProt Q13547); experiment: Inhibition of HDAC1 in human HeLa cells using BOC-K(Ac)-AMC as substrate measured after 30 mins by fluorescence based microtiter plate reader assay; assay type: cell-based
Histone deacetylase 3 = Histone deacetylase 3 (Homo sapiens, UniProt O15379); experiment: Inhibition of HDAC3 in human HeLa cells using BOC-K(Ac)-AMC as substrate measured after 30 mins by fluorescence based microtiter plate reader assay; assay type: cell-based
Tubulin (Homo sapiens) [10] = biological target: T2, Tubulin (Homo sapiens) (UniProt P68371+Q9H4B7+P0DPH7+P68366+Q13509+Q71U36+P04350+Q3ZCM7+P07437+P68363+Q9BQE3+Q6PEY2+Q13885+Q9BVA1+Q9BUF5); experiment: Induction of microtubule disruption in human HepG2 cells assessed as loss of cellular structure at 7.5 to 30 nM measured after 2 hrs by DAPI staining based immunofluorescence microscopic assay; assay type: cell-based; conditions: dose 7.5-30 nM
MDA-MB-231 = experiment: Antiproliferative activity against human MDA-MB-231 cells assessed as inhibition of cell growth measured after 72 hrs by MTT assay; assay type: functional, cell-based; conditions: MDA-MB-231, 72 h
HepG2 [11] = experiment: Induction of ROS generation in human HepG2 cells assessed as increase in ROS level at 30 nM incubated for 48 hrs by DCF-DA staining-based flow cytometry analysis (reference value: 3.73%); assay type: functional
HepG2 [12] = experiment: Induction of morphological changes in human HepG2 cells assessed as nuclear fragmentation at 7.5 to 30 nM after 48 hrs by Hoechst 33258 staining based fluorescence microscopic analysis; assay type: functional, cell-based; conditions: dose 7.5-30 nM
[13] = Metabolic stability in mouse assessed as intrinsic clearance; assay type: ADME; conditions: 1 h, 1 µM, time < 60 min
[14] = Metabolic stability in mouse liver microsomes assessed as half life at 1 uM in presence of NADPH measured up to 60 mins by LC-MS/MS analysis; assay type: ADME, Microsome
[15] = Metabolic stability in mouse liver microsomes assessed as intrinsic clearance at 1 uM in presence of NADPH measured per gram protein up to 60 mins by LC-MS/MS analysis; assay type: ADME, Microsome; conditions: 1 h
PC-3 = experiment: Induction of apoptosis in human PC-3 cells assessed as mitochondrial membrane potential loss by measuring decrease in […] fluorescence at 7.5 nM incubated for 48 hrs by JC1 staining based flow cytometry analysis (reference value: 93.48 +/- 0.15%); assay type: functional; design: scale not given: the % may be the effect or the level left
Histone deacetylase 2 [16] = biological target: T1, Histone deacetylase 2; experiment: Inhibition of HDAC2 in human HepG2 cells assessed as increase in level of acetyl histone H3substrate incubated for 24 hrs by chemiluminescence based Western blotting analysis; assay type: cell-based; conditions: dose 0.03-0.3 µM
[17] = Induction of apoptosis in ICR mouse cardiac tissue at 20 mg/kg, iv administered qd measured after 21 days by TUNEL assay; assay type: toxicity, organism-based; conditions: in vivo, 504 h, time 21 day
HepG2 [18] = experiment: Induction of apoptosis in human HepG2 cells assessed as viable cells at 30 nM incubated for 48 hrs by Annexin-V/PI-staining based flow cytometry (reference value: 91.44 +/- 0.74%); assay type: functional; conditions: read-out: Activity
K562 = experiment: cells; assay type: functional, cell-based; conditions: Homo sapiens, K562, 72 h
Description: Antiproliferative activity against human K562 cells assessed as inhibition of cell growth measured after 72 hrs by MTT assay

[19] = Metabolic stability in mouse plasma assessed as compound remaining at 40 uM measured after 5 hrs by LC-MS/MS analysis (reference value: 100%); assay type: ADME, cell-free
Tubulin = experiment: Inhibition of tubulin polymerization (unknown origin) preincubated for 15 mins followed by PEG and GTP addition measured after 30 mins by spectrophotometric method; assay type: protein-complex assay, Homo sapiens
[20] = Toxicity in ICR mouse allografted with mouse H22 cells assessed as diastolic blood pressure at 20 mg/kg, iv administered qd measured after 21 days; assay type: organism-based; conditions: in vivo, 504 h, time 21 day
Tubulin (Homo sapiens) [21] = biological target: T2, Tubulin (Homo sapiens); experiment: Inhibition of [3H]Colchicine binding to tubulin (unknown origin) at 1 uM measured after 2 hrs by scintillation counting method relative to control; assay type: protein-complex assay
HCT-116 = experiment: Antiproliferative activity against human HCT-116 cells assessed as inhibition of cell growth measured after 72 hrs by MTT assay; assay type: functional, cell-based; conditions: HCT-116, 72 h
[22] = Metabolic stability in mouse plasma assessed as compound remaining at 40 uM measured after 2 hrs by LC-MS/MS analysis (reference value: 100%); assay type: ADME, cell-free
HepG2 [23] = experiment: Induction of apoptosis in human HepG2 cells assessed as upregulation of Bad protein expression measured after 24 hrs by Western blot analysis; assay type: functional, cell-based; conditions: dose 7.5-30 nM, DDE = dose-dependent effect
HepG2 [24] = experiment: Induction of cell cycle arrest in human HepG2 cells assessed as accumulation G2 phase at 30 nM incubated for 48 hrs by propidium iodide staining based flow cytometry analysis (reference value: 23.55 +/- 0.29%); assay type: functional
[25] = Antiproliferative activity against human HFL1 cells assessed as inhibition of cell growth measured after 72 hrs by MTT assay; assay type: toxicity, cell-based
[26] = Toxicity in ICR mouse allografted with mouse H22 cells assessed as pathological changes in liver at 20 mg/kg, iv administered qd measured after 21 days by H and E staining based analysis; assay type: organism-based; conditions: in vivo, 504 h, time 21 day

T1 sequence (Q92769 whole entry): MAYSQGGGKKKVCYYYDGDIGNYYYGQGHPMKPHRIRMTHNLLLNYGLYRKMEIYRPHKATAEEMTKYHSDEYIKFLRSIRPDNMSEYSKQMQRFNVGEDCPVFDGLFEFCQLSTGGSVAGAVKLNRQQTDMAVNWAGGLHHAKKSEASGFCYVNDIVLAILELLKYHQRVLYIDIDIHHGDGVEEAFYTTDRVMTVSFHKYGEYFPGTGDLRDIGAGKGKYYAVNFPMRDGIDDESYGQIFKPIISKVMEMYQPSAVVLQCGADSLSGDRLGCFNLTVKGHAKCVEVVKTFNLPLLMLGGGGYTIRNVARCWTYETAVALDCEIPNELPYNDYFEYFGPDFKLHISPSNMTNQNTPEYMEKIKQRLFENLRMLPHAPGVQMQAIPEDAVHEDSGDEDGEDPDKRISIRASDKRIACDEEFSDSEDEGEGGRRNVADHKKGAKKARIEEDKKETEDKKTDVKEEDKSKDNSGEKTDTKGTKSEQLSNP
Histone deacetylase 3, sequence (O15379 whole entry): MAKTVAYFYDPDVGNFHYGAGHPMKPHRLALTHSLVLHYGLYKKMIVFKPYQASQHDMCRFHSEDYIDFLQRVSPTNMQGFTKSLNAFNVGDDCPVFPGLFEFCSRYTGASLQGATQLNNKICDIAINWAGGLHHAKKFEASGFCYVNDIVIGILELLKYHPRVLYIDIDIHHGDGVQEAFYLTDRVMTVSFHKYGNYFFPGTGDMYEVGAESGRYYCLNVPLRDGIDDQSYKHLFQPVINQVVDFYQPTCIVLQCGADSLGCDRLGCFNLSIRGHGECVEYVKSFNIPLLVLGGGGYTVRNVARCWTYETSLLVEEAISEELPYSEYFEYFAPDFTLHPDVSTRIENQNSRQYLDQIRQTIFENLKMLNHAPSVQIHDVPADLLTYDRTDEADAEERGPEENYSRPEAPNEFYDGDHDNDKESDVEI
Histone deacetylase 1, sequence (Q13547 whole entry): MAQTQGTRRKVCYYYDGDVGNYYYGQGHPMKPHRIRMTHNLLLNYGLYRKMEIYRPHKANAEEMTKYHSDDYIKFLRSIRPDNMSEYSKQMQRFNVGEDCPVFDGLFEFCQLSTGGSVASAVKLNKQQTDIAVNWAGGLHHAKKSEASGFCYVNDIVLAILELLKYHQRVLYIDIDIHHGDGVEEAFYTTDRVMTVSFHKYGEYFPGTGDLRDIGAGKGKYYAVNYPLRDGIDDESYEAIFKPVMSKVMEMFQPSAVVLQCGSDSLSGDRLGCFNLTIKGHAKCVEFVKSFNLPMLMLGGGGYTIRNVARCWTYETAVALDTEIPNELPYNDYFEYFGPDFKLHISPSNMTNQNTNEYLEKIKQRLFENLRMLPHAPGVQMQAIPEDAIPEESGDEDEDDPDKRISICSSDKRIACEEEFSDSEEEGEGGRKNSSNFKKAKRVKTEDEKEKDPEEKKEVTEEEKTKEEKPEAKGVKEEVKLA

Stability [1]: 59% | IC50 (Histone deacetylase 2 [2]): 135 nM | IC50 (Histone deacetylase 1): 115 nM | IC50 (Histone deacetylase 3): 242 nM | Activity (Tubulin (Homo sapiens) [10]): Active | IC50 (MDA-MB-231): 30 nM | CL [13]: 2.82 mL/min | half-life at 1 µM [14]: 50.3 min | CLH [15]: 41.7 mL/min/g | inhibition (Histone deacetylase 2 [16]): Active | IC50 (K562): 18 nM | Stability [19]: 16% | IC50 (Tubulin): 4060 nM | inhibition (Tubulin (Homo sapiens) [21]): 52.3% | IC50 (HCT-116): 28 nM | Stability [22]: 30.7%
Compound: COc1ccc(CNC(=O)c2cc(F)ccc2N2CCOCC2)cc1/C=C/C(=O)NO
Activity (HepG2 [3]): 23.58% | Activity [4]: Non-Toxic | Activity (HepG2 [5]): 34.86% | Activity (HepG2 [6]): Dde | inhibition (Mus musculus): Active | Activity [7]: Non-Toxic | Activity (HepG2 [8]): 43.33% | Activity (HepG2 [9]): 54.77% | Activity (HepG2 [11]): 46.69% | Activity (HepG2 [12]): Active | Activity (PC-3): 76.73% | Activity [17]: Non-Toxic | viability at 0.03 µM (HepG2 [18]): 46.6% | Activity [20]: Non-Toxic | Activity (HepG2 [23]): Dde | Activity (HepG2 [24]): 33.09% | IC50 at 72 h [25]: 13 nM | Activity [26]: Non-Toxic
